In patent US10273228B2, “Hepatitis B viral assembly effectors” (Indiana University Research and Technology Corporation, priority 2015, dated 2019):
Like-named read-outs stand apart in the source and are kept apart here.

Experiments:
[1] = test system: HBV viral load, AD38 cells; experiment: Activity of test compounds on viral production from AD38 cells (viral load by quantitative PCR of the core sequence in supernatant); assay type: cell-based, Hepatitis B virus; conditions: Hepatitis B virus, 144 h, 10 μM compound, 6 days at 37° C., vs DMSO control wells, read-out: AD38 Viral Load (CpAM/DMSO %) at 10 μM
Procedure: (§1) AD38 cells were then re-suspended with 10 mL of treatment medium and counted. Wells of a collagen coated 96-well NUNC microtiter plate were seeded at 50,000/well in 180 μL of treatment medium, and 20 μL of either 10% DMSO (Control) or a 10× solution of test compound in 10% DMSO in treatment media was added for a final compound concentration 1, 3, or 10 μM (1.0% final [DMSO]) and plates were incubated for 6 days at 37° C.
Subsequently viral load production was assayed by quantitative PCR of the core sequence. Briefly, 5 μL of clarified supernatant was added to a PCR reaction mixture that contained forward primers HBV-f 5′-CTGTGCCTTGGGTGGCTTT-3′, Reverse primers HBV-r 5′-[…]-3′ and Fluorescent TaqMan™ Probes HBV-probe 5′-FAM/AGCTCCAAA/ZEN/[…]/3IABkFQ-3′ in Quanta Biosciences PerfeCTa® qPCR Toughmix®, and was subsequently on an Applied Biosystems VIIA7 in a final volume of 20 μL. The PCR mixture was incubated at 45° C. for 5 minutes, then 95° C. for 10 min, followed by 40 cycles of 10 seconds at 95° C. and 20 seconds at 60° C. Viral load was quantitated against known standards by using ViiA™ 7 Software. Viral load in the supernatant from wells with treated cells were compared against viral load in supernatant from DMSO control wells (≥3 per plate).

AD38 cells = experiment: AD38 viability normalized to DMSO control; assay type: cell-based; conditions: 10 μM compound, vs DMSO control
Procedure: as §1

For `Cc1ccc(Nc2cc(C)nc(N3CCN(S(=O)(=O)c4cnc(N)nc4)CC3)n2)cc1` [Compound 1260], the activity at 10 µM ([1]; Table 6) was 78% and the “AD38 Viability Normalized Result (CPAM/DMSO %) at 10 μM” value (AD38 cells; Table 6) was 98%.

`COc1ccc(S(=O)(=O)N2CCN(c3nc(C)cc(Nc4ncc(C)cn4)n3)CC2)cc1` [Compound 1261] was tested, and the activity at 10 µM ([1]; Table 6) was 87% and the “AD38 Viability Normalized Result (CPAM/DMSO %) at 10 μM” value (AD38 cells; Table 6) was 98%.

For `COc1ccc(S(=O)(=O)N2CCN(c3nc(Nc4ccc(C)cc4)cc(OCCO)n3)CC2)cc1` [Compound 1265, 2-((2-(4-((4-methoxyphenyl)sulfonyl)piperazin-1-yl)-6-(p-tolylamino)pyrimidin-4-yl)oxy) ethan-1-ol], the activity at 10 µM ([1]; Table 6) was 13% and the “AD38 Viability Normalized Result (CPAM/DMSO %) at 10 μM” value (AD38 cells; Table 6) was 102%.

With `COc1ccc(S(=O)(=O)N2CCN(c3nc(Nc4ccc(C)cc4)cc(N(C)C(C)(C)C)n3)CC2)cc1` [Compound 1273, N^4-(tert-butyl)-2-(4-((4-methoxyphenyl)sulfonyl)piperazin-1-yl)-N^4-methyl-N^6-(p-tolyl) pyrimidine-4,6-diamine] the activity at 10 µM ([1]; Table 6) was 16% and the “AD38 Viability Normalized Result (CPAM/DMSO %) at 10 μM” value (AD38 cells; Table 6) was 98%.

With `COc1ccc(S(=O)(=O)N2CCN(c3nc(Nc4ccc(C)cc4)cc(-c4ncc[nH]4)n3)CC2)cc1` [Compound 1274, 6-(1H-imidazol-2-yl)-2-(4-((4-methoxyphenyl)sulfonyl)piperazin-1-yl)-N-(p-tolyl) pyrimidin-4-amine] the activity at 10 µM ([1]; Table 6) was 19% and the “AD38 Viability Normalized Result (CPAM/DMSO %) at 10 μM” value (AD38 cells; Table 6) was 92%.

`COc1ccc(S(=O)(=O)N2CCN(c3nc(Nc4ccc(C)cc4)cc(-n4cnnc4)n3)CC2)cc1` [Compound 1282, 2-(4-((4-methoxyphenyl)sulfonyl)piperazin-1-yl)-N-(p-tolyl)-6-(4H-1,2,4-triazol-4-yl) pyrimidin-4-amine] was tested, and the activity at 10 µM ([1]; Table 6) was 22% and the “AD38 Viability Normalized Result (CPAM/DMSO %) at 10 μM” value (AD38 cells; Table 6) was 99%.

With `Cc1ccc(Nc2cc(C)nc(N3CCN(S(=O)(=O)c4cc(C(=O)Nc5cc(F)c(F)c(F)c5)ccc4F)CC3)n2)cc1` [Compound 1286, 4-fluoro-3-((4-(4-methyl-6-(p-tolylamino)pyrimidin-2-yl)piperazin-1-yl)sulfonyl)-N-(3,4,5-trifluorophenyl) benzamide] the activity at 10 µM ([1]; Table 6) was 2% and the “AD38 Viability Normalized Result (CPAM/DMSO %) at 10 μM” value (AD38 cells; Table 6) was 86%.

With `CC(C)c1cc(Oc2ccc(F)cc2)nc(N2CCN(S(=O)(=O)c3cccc(C(F)(F)F)c3)CC2)n1` [Compound 1287] the activity at 10 µM ([1]; Table 6) was 77% and the “AD38 Viability Normalized Result (CPAM/DMSO %) at 10 μM” value (AD38 cells; Table 6) was 98%.

For `Cc1ccc(S(=O)(=O)N2CCN(c3nc(Oc4ccc(F)cc4)cc(C(C)C)n3)CC2)cc1` [Compound 1288], the activity at 10 µM ([1]; Table 6) was 102% and the “AD38 Viability Normalized Result (CPAM/DMSO %) at 10 μM” value (AD38 cells; Table 6) was 105%.

`CN(C)c1cc(Oc2ccc(F)cc2)nc(N2CCN(S(=O)(=O)c3cccc(C(F)(F)F)c3)CC2)n1` [Compound 1289] was tested, and the activity at 10 µM ([1]; Table 6) was 55% and the “AD38 Viability Normalized Result (CPAM/DMSO %) at 10 μM” value (AD38 cells; Table 6) was 105%.

With `Cc1ccc(S(=O)(=O)N2CCN(c3nc(Oc4ccc(F)cc4)cc(N(C)C)n3)CC2)cc1` [Compound 1290] the activity at 10 µM ([1]; Table 6) was 62% and the “AD38 Viability Normalized Result (CPAM/DMSO %) at 10 μM” value (AD38 cells; Table 6) was 105%.

`CC(C)c1cc(Oc2ccc(F)cc2)nc(N2CCN(S(=O)(=O)c3ccc(F)cc3)CC2)n1` [Compound 1295] was tested, and the activity at 10 µM ([1]; Table 6) was 84% and the “AD38 Viability Normalized Result (CPAM/DMSO %) at 10 μM” value (AD38 cells; Table 6) was 101%.

`CC(C)c1cc(Oc2ccc(F)cc2)nc(N2CCN(S(=O)(=O)c3ccc(C(F)(F)F)cc3)CC2)n1` [Compound 1296] was tested, and the activity at 10 µM ([1]; Table 6) was 102% and the “AD38 Viability Normalized Result (CPAM/DMSO %) at 10 μM” value (AD38 cells; Table 6) was 103%.

In the case of `CN(C)c1cc(Oc2ccc(F)cc2)nc(N2CCN(S(=O)(=O)c3ccc(F)cc3)CC2)n1` [Compound 1297], the activity at 10 µM ([1]; Table 6) is reported as 59% and the “AD38 Viability Normalized Result (CPAM/DMSO %) at 10 μM” value (AD38 cells; Table 6) is reported as 103%.

`CN(C)c1cc(Oc2ccc(F)cc2)nc(N2CCN(S(=O)(=O)c3ccc(C(F)(F)F)cc3)CC2)n1` [Compound 1298] was tested, and the activity at 10 µM ([1]; Table 6) was 100% and the “AD38 Viability Normalized Result (CPAM/DMSO %) at 10 μM” value (AD38 cells; Table 6) was 97%.

In the case of `CN(C)c1cc(Oc2ccc(F)cc2)nc(N2CCN(S(=O)(=O)c3ccccc3)CC2)n1` [Compound 1299], the activity at 10 µM ([1]; Table 6) is reported as 54% and the “AD38 Viability Normalized Result (CPAM/DMSO %) at 10 μM” value (AD38 cells; Table 6) is reported as 112%.

`CC(C)c1cc(Oc2ccc(F)cc2)nc(N2CCN(S(=O)(=O)c3ccccc3)CC2)n1` [Compound 1301] was tested, and the activity at 10 µM ([1]; Table 6) was 63% and the “AD38 Viability Normalized Result (CPAM/DMSO %) at 10 μM” value (AD38 cells; Table 6) was 102%.

In the case of `CN(C)c1cc(Nc2ccc(F)cc2)nc(N2CCN(S(=O)(=O)c3ccc(F)cc3)CC2)n1` [Compound 1302], the activity at 10 µM ([1]; Table 6) is reported as 52% and the “AD38 Viability Normalized Result (CPAM/DMSO %) at 10 μM” value (AD38 cells; Table 6) is reported as 112%.

In the case of `CN(C)c1cc(Nc2ccc(F)cc2)nc(N2CCN(S(=O)(=O)c3ccc(C(F)(F)F)cc3)CC2)n1` [Compound 1303], the activity at 10 µM ([1]; Table 6) is reported as 14% and the “AD38 Viability Normalized Result (CPAM/DMSO %) at 10 μM” value (AD38 cells; Table 6) is reported as 35%.

In the case of `CN(C)c1cc(Nc2ccc(F)cc2)nc(N2CCN(S(=O)(=O)c3ccccc3)CC2)n1` [Compound 1304], the activity at 10 µM ([1]; Table 6) is reported as 48% and the “AD38 Viability Normalized Result (CPAM/DMSO %) at 10 μM” value (AD38 cells; Table 6) is reported as 113%.

With `CN(C)c1cc(Nc2ccc(F)cc2)nc(N2CCN(S(=O)(=O)c3cccc(C(F)(F)F)c3)CC2)n1` [Compound 1305] the activity at 10 µM ([1]; Table 6) was 4% and the “AD38 Viability Normalized Result (CPAM/DMSO %) at 10 μM” value (AD38 cells; Table 6) was 6%.

`Cc1ccc(S(=O)(=O)N2CCN(c3nc(Nc4ccc(F)cc4)cc(N(C)C)n3)CC2)cc1` [Compound 1306] was tested, and the activity at 10 µM ([1]; Table 6) was 22% and the “AD38 Viability Normalized Result (CPAM/DMSO %) at 10 μM” value (AD38 cells; Table 6) was 103%.

With `O=S(=O)(c1ccc(F)cc1)N1CCN(c2nc(Oc3ccc(F)cc3)cc(-n3cnnc3)n2)CC1` [Compound 1307] the activity at 10 µM ([1]; Table 6) was 84% and the “AD38 Viability Normalized Result (CPAM/DMSO %) at 10 μM” value (AD38 cells; Table 6) was 94%.

`O=S(=O)(c1ccc(C(F)(F)F)cc1)N1CCN(c2nc(Oc3ccc(F)cc3)cc(-n3cnnc3)n2)CC1` [Compound 1308] was tested, and the activity at 10 µM ([1]; Table 6) was 63% and the “AD38 Viability Normalized Result (CPAM/DMSO %) at 10 μM” value (AD38 cells; Table 6) was 88%.

In the case of `O=S(=O)(c1cccc(C(F)(F)F)c1)N1CCN(c2nc(Oc3ccc(F)cc3)cc(-n3cnnc3)n2)CC1` [Compound 1309], the activity at 10 µM ([1]; Table 6) is reported as 26% and the “AD38 Viability Normalized Result (CPAM/DMSO %) at 10 μM” value (AD38 cells; Table 6) is reported as 67%.

In the case of `Cc1ccc(S(=O)(=O)N2CCN(c3nc(Oc4ccc(F)cc4)cc(-n4cnnc4)n3)CC2)cc1` [Compound 1310], the activity at 10 µM ([1]; Table 6) is reported as 50% and the “AD38 Viability Normalized Result (CPAM/DMSO %) at 10 μM” value (AD38 cells; Table 6) is reported as 81%.

For `O=S(=O)(c1ccccc1)N1CCN(c2nc(Oc3ccc(F)cc3)cc(-n3cnnc3)n2)CC1` [Compound 1311], the activity at 10 µM ([1]; Table 6) was 66% and the “AD38 Viability Normalized Result (CPAM/DMSO %) at 10 μM” value (AD38 cells; Table 6) was 86%.

With `O=S(=O)(c1ccc(F)cc1)N1CCN(c2nc(Nc3ccc(F)cc3)cc(-n3cnnc3)n2)CC1` [Compound 1312] the activity at 10 µM ([1]; Table 6) was 31% and the “AD38 Viability Normalized Result (CPAM/DMSO %) at 10 μM” value (AD38 cells; Table 6) was 96%.

`O=S(=O)(c1cccc(C(F)(F)F)c1)N1CCN(c2nc(Nc3ccc(F)cc3)cc(-n3cnnc3)n2)CC1` [Compound 1313] was tested, and the activity at 10 µM ([1]; Table 6) was 47% and the “AD38 Viability Normalized Result (CPAM/DMSO %) at 10 μM” value (AD38 cells; Table 6) was 93%.

`O=S(=O)(c1ccccc1)N1CCN(c2nc(Nc3ccc(F)cc3)cc(-n3cnnc3)n2)CC1` [Compound 1314] was tested, and the activity at 10 µM ([1]; Table 6) was 36% and the “AD38 Viability Normalized Result (CPAM/DMSO %) at 10 μM” value (AD38 cells; Table 6) was 94%.

`O=S(=O)(c1ccc(C(F)(F)F)cc1)N1CCN(c2nc(Nc3ccc(F)cc3)cc(-n3cnnc3)n2)CC1` [Compound 1315] was tested, and the activity at 10 µM ([1]; Table 6) was 89% and the “AD38 Viability Normalized Result (CPAM/DMSO %) at 10 μM” value (AD38 cells; Table 6) was 98%.

With `N#Cc1ccc(Nc2cc(C(F)(F)F)nc(N3CCN(S(=O)(=O)c4ccc(OC(F)(F)F)cc4)CC3)n2)cc1` [Compound 1332] the activity at 10 µM ([1]; Table 9) was 13% and the “AD38 Viability Normalized Result (CPAM/DMSO %) at 10 μM” value (AD38 cells; Table 9) was 85%.

With `CCOc1ccc(S(=O)(=O)N2CCN(c3nc(Nc4ccc(C#N)cc4)cc(C(F)(F)F)n3)CC2)cc1` [Compound 1333] the activity at 10 µM ([1]; Table 9) was 2% and the “AD38 Viability Normalized Result (CPAM/DMSO %) at 10 μM” value (AD38 cells; Table 9) was 85%.
